According to patent publication EP0068563A2, “Heterocyclic acetic acid compounds and compositions for treating bone diseases” (THE PROCTER & GAMBLE COMPANY, priority 1981, dated 1983):

What was measured:
[1] = test system: Weanling male Sprague-Dawley derived rats; experiment: in vivo periosteal and endosteal bone apposition rates and endosteal resorption rates (tetracycline/DCAF double label, tibial sections); set-up: EBAR (endosteal bone apposition rate) / ERR (endosteal resorption rate): unit not given here; settings: for ERR (endosteal resorption rate) / EBAR (endosteal bone apposition rate) / P BAR (periosteal bone apposition rate): subcutaneous daily, 10 days, rat tibia; for ERR (endosteal resorption rate): control 3.6; for EBAR (endosteal bone apposition rate): control 4.0; for P BAR (periosteal bone apposition rate): control 14.7
Text: The following test was used to establish in vivo periosteal and endosteal bone apposition rates and endosteal resorption rates. The test method is a modification of the method of Baylink, et al., J. Clin. Invest.
Weanling male Sprague-Dawley derived rats weighing 50-60 grams (Charles River Breeding Labs, Wilmington, Massachusetts) were allowed 2-3 days to adapt to the laboratory environment before receiving any treatment. Throughout the adaptation and experimental periods the animals were allowed free access to tap water and food (Purina Lab Rat Chow, Ralston Purina Company, St. Louis, Missouri).
On the first day of the experiment all animals were given a subcutaneous injection of tetracycline hydrochloride at a dose of 20 mg/kg to label the skeleton. Test compound and saline (control animals) treatments were also started on the first day of the experiment. They were given subcutaneously under skin flap where the rear legs join the body using alternating sides each day. Since these animals were rapidly growing, body weights were taken daily and dosage adjusted accordingly.
Seven days after the animals received tetracycline they were given a subcutaneous injection of (2,4 bis)N-N'-di (carboxymethyl)amino methylfluorescein (DCAF) at a dose of 20 mg/kg to provide a second skeletal label.
Ten days after treatments were initiated, the animals were sacrificed by carbon dioxide asphyxiation and their left and right tibias and femurs taken and placed in 70% ethanol until they were further processed.
The test comoounds were given as solutions preoared in distilled water, and the pH was adjusted to 7.4. Solution concentrations were adjusted so that constant volumes of 0.2 ml/100 grams of body weight could be maintained for all animals.
Dose volumes were […] of body weight.
DCAF, (2,4-bis)-N,N'di(carboxymethyl) amino methyl fluorescein, Nutritional Biochemicals Corporation, Cleveland, Ohio was given as a 1% solution in 2% sodium bicarbonate and 0.8% dextrose. This solution was filtered prior to administration to remove any undissolved particles. Dose volumes of the DCAF solution were 0.2 ml/100 grams of body weight.
The left tibiae were blocked stained with Villanueva's stain, embedded in methyl methacrylate and sectioned at 75-100 u. Cross sections were prepared from the shaft of the tibia where it is joined by the distal portion of the fibula.
These parameters were measured in tibial cross sections and in longitudinal sections through the proximal tibial epiphysis with a 5 mm micrometer which was superimposed optically over the section by placing it in the eyepiece of a microscope. Conversion of the values obtained to actual widths was established with a stage micrometer.
The width between fluorescent labels on the periosteal surface was established at 100x by making 4 measurements at 90. degree intervals around the circumference of the labeled area. Measurements were made from the middle of one label to the middle of' the next. A mean value was then established for each surface and multiplied times the conversion factor to obtain the actual distance in microns. Bone apposition rates were then calculated by dividing this value by the number of days over which the fluorescent labels were given (i.e. 7 days).
Endosteal bone apposition was established at 100x by making 4 measurements at equidistant points across the section from the bottom of the plate to the closest fluorescent label (the last label administered). A mean value was then established and multiplied times a conversion factor to obtain the actual distance in microns.
A mean value was then established and multiplied times a conversion factor to obtain the actual distance in microns. Bone resorption rates were calculated by dividing this value by number of days over which the experiment was conducted (i.e. 10 days).

Fetal rat bone = experiment: PGE2 stimulated in vitro bone resorption in the fetal long bone system (45Ca release); format: cell-based; settings: versus control cultures; for inhibition at 390 µM: concentration 0.39 mM; for inhibition at 1560 µM: concentration 1.56 mM
Description: Fetal rat bone was cultured in the medium described in this reference. Bone resorption was stimulated by addition of prostaglandin, PGE2, and measured by the release of previously incorporated ^45Ca into the medium and by changes in the total bone calcium content.
PGE2 Stimulated Bone Resorption in the Fetal Long Bone System

Row | Compound | ERR (endosteal resorption rate) ([1]; dose 16 uM) | EBAR (endosteal bone apposition rate) ([1]; dose 16 uM) | P BAR (periosteal bone apposition rate) ([1]; dose 16 uM) | ERR (endosteal resorption rate) ([1]; dose 80 uM) | EBAR (endosteal bone apposition rate) ([1]; dose 80 uM) | P BAR (periosteal bone apposition rate) ([1]; dose 80 uM) | ERR (endosteal resorption rate) ([1]; dose 5 uM) | EBAR (endosteal bone apposition rate) ([1]; dose 5 uM) | P BAR (periosteal bone apposition rate) ([1]; dose 5 uM) | bone resorption (conclusion in words) ([1]; summary of the rat test table) | inhibition at 390 µM (Fetal rat bone) | inhibition at 1560 µM (Fetal rat bone)
1 | O=P(O)(O)C(Cl)(Cl)P(=O)(O)O [Cl2MDP, dichloro-methylene-diphosphonate] | 1.3 | 3.2 | 14.8 | 0 | 3.1 | 14.8 |  |  |  |  |  | 
2 | O=C(O)c1cc2ccccc2s1 [BTCA, benzothiophene-2-carboxylic acid] | 3.3 | 3.4 | 16.2 |  |  |  | 2.9 | 3.5 | 18.2 | does not significantly reduce bone resorption |  | 
3 | O=C(O)Cc1cccs1 [Thiophene-2-Acetic Acid] |  |  |  |  |  |  |  |  |  |  | 47.8% | 107%
4 | COc1ccc2[nH]c(C(=O)O)cc2c1 [5-Methoxyindole-2-Carboxylic Acid] |  |  |  |  |  |  |  |  |  |  | 47.5% | 80.1%
5 | O=C(O)Cc1cc2ccccc2s1 [BTAA, benzothiophene-2-acetic acid] | 0.9 | 3.9 | 18.1 |  |  |  | 1.2 | 3.5 | 16.0 |  |  | 
6 | O=C(O)c1cccs1 [Thiophene-2-Carboxylic Acid, reference compound] |  |  |  |  |  |  |  |  |  |  | 43% | 47.8%
7 | O=C(O)Cc1nc2ccccc2[nH]1 [BMZAA, benzimidazole-2-acetic acid] | 1.5 | 3.4 | 18.1 |  |  |  | 1.0 | 3.8 | 15.5 |  |  | 
